# Experiments:
# MSSA 476 [1] = assay: MIC, broth micro-dilution; assay type: cell-based, Staphylococcus aureus; conditions: Staphylococcus aureus, MSSA, read-out: MIC
# Experimental: (§1) E. coli DH5α, P. aeruginosa PA01 and the 53 S. aureus strains were recovered from frozen (−80° C.) glycerol (15% v/v) stocks on Lysogeny agar (LA)—Gram negative and trypticase soy agar (TSA)—plates at 37° C. for 24 hours. Single colonies were placed in either 3 mL Lysogeny broth (LB)—Gram negative or trypticase soy broth (TSB)—Gram positive and incubated at 37° C., 250 rpm for 18 hours.
# (§2) Antibiotic MIC's were determined by a broth micro-dilution method according to Clinical Standard Laboratory Institute (CSLI) Guidelines (2017). Briefly, 96-well microplates, each containing 195 μL of the 1:2 dilution antibiotic in TSB, were inoculated with 5 μL of overnight cultured bacteria, diluted to give a starting bacterial concentration of 5×10^5 CFU/mL. The optical density of each well inoculated was recorded every 12 minutes over an 18 hour period at 37° C. The data from this was plotted in OriginPro8 (OriginLab) and sigmoidal curves fitted using the dose response function. Fitted values for each curve were used to calculate the MIC.
# MRSA 252 [2] = assay: MIC, broth micro-dilution; assay type: cell-based, Staphylococcus aureus; conditions: Staphylococcus aureus, read-out: MIC
# Experimental: as §1, §2
# [3] = tested on: Staphylococcus aureus 15981; assay: Disc diffusion (Kirby-Bauer), zone of inhibition; assay type: cell-based; conditions: Staphylococcus aureus 15981; 500 μg/mL; '/' = no zone; read-out: Zone of inhibition
# Experimental: as §1
# (§3) The antibiotic activity was determined using a Kirby-Bauer method according to Clinical Standard Laboratory Institute (CSLI) Guidelines (2017). Briefly, 180 μL of a 1 in 200 dilution (in LB or TSB) of overnight cultures of selected Gram negative and Gram positive bacteria were applied to an agar plate containing the solid growth medium, Mueller-Hinton agar (MHA). Sterile discs, inoculated with 50 μL of antibiotic, were first added to the agar plate before the plates were incubated for 24 hours at 37° C. Following incubation, the zone of inhibition (if it existed) was recorded.
# [4] = tested on: Pseudomonas aeruginosa PA01; assay: Disc diffusion (Kirby-Bauer), zone of inhibition; assay type: cell-based; conditions: 500 μg/mL, '/' = no zone
# Experimental: as §1, §3
# Escherichia coli DH5α = assay: Disc diffusion (Kirby-Bauer), zone of inhibition; assay type: cell-based; conditions: Escherichia coli DH5α; 500 μg/mL; '/' = no zone; read-out: Zone of inhibition
# Experimental: as §1, §3
# MSSA 476 [5] = assay: Disc diffusion (Kirby-Bauer), zone of inhibition; assay type: cell-based, Staphylococcus aureus; conditions: Staphylococcus aureus, 500 μg/mL, '/' = no zone, read-out: Zone of inhibition
# Experimental: as §1, §3
# MRSA 252 [6] = assay: Disc diffusion (Kirby-Bauer), zone of inhibition; assay type: cell-based, Staphylococcus aureus; conditions: Staphylococcus aureus, 500 μg/mL, '/' = no zone, read-out: Zone of inhibition
# Experimental: as §1, §3
# [7] = tested on: MRSA 252, MSSA 476, S. aureus 15981, P. aeruginosa PA01 and E. coli DH5α; assay: Disc diffusion primary screening, five strains (statements in words); assay type: cell-based; conditions: 500 μg/mL
# Experimental: As such, the minimum inhibition concentration (MICs) of biologically active compounds were further assessed using the broth dilution method against the S. aureus strains; MRSA 252 and MSSA 476 (Table 1). The results of both assays enabled key structural elements and functional groups required for the compounds to retain their antibiotic activity to be identified.
# as §3
SMILES,MIC (MSSA 476 [1]),MIC (MRSA 252 [2]),zone of inhibition at 500 µg/mL [3],zone of inhibition at 500 µg/mL [4],zone of inhibition at 500 µg/mL (Escherichia coli DH5α),zone of inhibition at 500 µg/mL (MSSA 476 [5]),zone of inhibition at 500 µg/mL (MRSA 252 [6]),antibiotic activity in disc diffusion assays (in words) [7]
"[C-]#[N+]c1ccc(O)cc1 [Compound 5, 4-Isocyanophenol]",23 mg/L,26 mg/L,16 mm,26 mm,18 mm,30 mm,26 mm,
"[C-]#[N+]CCc1ccc(O)cc1 [Compound 4, 4-(2-Isocyanoethyl)phenol]",,,,,,,,complete loss of activity against all five strains
[C-]#[N+]/C=C/c1cc(/C=C/c2ccccc2)ccc1O [Compound 37],120 mg/L,105 mg/L,22 mm,,,24 mm,22 mm,retained antibiotic activity
"[C-]#[N+]C=Cc1c[nH]c2cccc(Br)c12 [Compound 30, 4-Bromo-3-(2-isocyanovinyl)-1H-indole]",350 mg/L,214 mg/L,12 mm,,,12 mm,14 mm,
"[C-]#[N+]C=Cc1ccc(NC(=O)OC(C)(C)C)cc1 [Compound 23, Tert-butyl(4-(isocyanovinyl)phenyl)carbamate]",164 mg/L,35 mg/L,14 mm,14 mm,14 mm,20 mm,18 mm,
"[C-]#[N+]/C=C/c1ccccc1O (single isomer, unassigned) [Compound 11, 2-(2-isocyanovinyl)phenol]",350 mg/L,250 mg/L,14 mm,12 mm,,20 mm,18 mm,
"[C-]#[N+]/C=C/c1cc(OC)ccc1O [Compound 12, (E)-2-(2-Isocyanovinyl)-4-methoxyphenol]",187 mg/L,123 mg/L,16 mm,,,14 mm,16 mm,
[C-]#[N+]/C=C/c1cn(C(C)C)c2ccccc12 [Compound 29],90 mg/L,63 mg/L,16 mm,12 mm,,16 mm,22 mm,
[C-]#[N+]C=Cc1cn(CC)c2ccccc12 [Compound 28],144 mg/L,56 mg/L,22 mm,20 mm,,22 mm,26 mm,

# From patent publication US20240246905A1 (University of Leicester, priority 2021, published 2024)
